Several values for one entry are separate records, joined by “and”; a condition that tells them apart may be missing. Equal entries are not always repeated. Where two headings read alike, the source gives them in different places.
Tested on: Pleurotus ostreatus mycelia CGMCC No. 6232
Assay: Shake-flask fermentation, total content of ergothioneine in the fermentation broth by HPLC
Assay type: cell-based
[1] = Pleurotus ostreatus, CGMCC6232, 360 h, read-out: content of ergothioneine improved compared with control group

## Cl.N [NH4Cl]
NH4Cl 0.5 g/L added in fermentation medium
  Content of ergothioneine in fermentation broth: 127 ± 1.87 mg/L
NH4Cl 1 g/L added in fermentation medium
  Content of ergothioneine in fermentation broth: 133.7 ± 1.04 mg/L
NH4Cl 2 g/L added in fermentation medium
  Content of ergothioneine in fermentation broth: 139.2 ± 1.55 mg/L
NH4Cl 4 g/L
  content of ergothioneine improved compared with control group: 24.4%
NH4Cl 4 g/L added in fermentation medium
  Content of ergothioneine in fermentation broth: 155.4 mg/L and 155.4 ± 2.68 mg/L
NH4Cl 8 g/L added in fermentation medium
  Content of ergothioneine in fermentation broth: 141.8 ± 0.68 mg/L
NH4Cl 12 g/L added in fermentation medium
  Content of ergothioneine in fermentation broth: 128.6 ± 3.53 mg/L

## [Cl-].[Na+] [NaCl]
  content of ergothioneine improved compared with control group: 6.63%

## Cc1ncc(C[n+]2csc(CCO)c2C)c(N)n1 [VB1, vitamin B1]
VB1 0.01 g/L added in fermentation medium
  Content of ergothioneine in fermentation broth: 122.7 ± 1.02 mg/L
VB1 0.05 g/L added in fermentation medium
  Content of ergothioneine in fermentation broth: 128.8 ± 2.41 mg/L
VB1 0.1 g/L
  content of ergothioneine improved compared with control group: 11.2%
VB1 0.1 g/L added in fermentation medium
  Content of ergothioneine in fermentation broth: 132.2 mg/L and 132.2 ± 1.39 mg/L
VB1 0.2 g/L added in fermentation medium
  Content of ergothioneine in fermentation broth: 129.6 ± 2.67 mg/L
VB1 0.4 g/L added in fermentation medium
  Content of ergothioneine in fermentation broth: 127 ± 1.86 mg/L
VB1 0.8 g/L added in fermentation medium
  Content of ergothioneine in fermentation broth: 123.3 ± 3.03 mg/L

## N=C(N)NCCC[C@H](N)C(=O)O [arginine]
[1]
  activation at 2000 µg/mL: 12.7%

## N[C@@H](CC(=O)O)C(=O)O [aspartic acid]
Pleurotus ostreatus, CGMCC6232, 360 h, aspartic acid 5 g/L, read-out: content of ergothioneine improved compared with control group
  activation at 5000 µg/mL: 14.1%
Aspartic acid 0.05 g/L added in fermentation medium
  Content of ergothioneine in fermentation broth: 124.1 ± 3.07 mg/L
Aspartic acid 0.5 g/L added in fermentation medium
  Content of ergothioneine in fermentation broth: 128 ± 2.51 mg/L
Aspartic acid 1 g/L added in fermentation medium
  Content of ergothioneine in fermentation broth: 130.1 ± 4.28 mg/L
Aspartic acid 5 g/L added in fermentation medium
  Content of ergothioneine in fermentation broth: 135.9 mg/L and 135.9 ± 3.64 mg/L
Aspartic acid 7 g/L added in fermentation medium
  Content of ergothioneine in fermentation broth: 127.9 ± 2.59 mg/L
Aspartic acid 9 g/L added in fermentation medium
  Content of ergothioneine in fermentation broth: 123.8 ± 2.88 mg/L

## C[N+](C)(C)CC(=O)O [betaine]
Pleurotus ostreatus, CGMCC6232, 360 h, betaine 150 mmol/L, read-out: content of ergothioneine improved compared with control group
  activation at 150000 µM: 22%
Betaine 50 mmol/L added in fermentation medium
  Content of ergothioneine in fermentation broth: 125.3 ± 2.67 mg/L
Betaine 100 mmol/L added in fermentation medium
  Content of ergothioneine in fermentation broth: 130.1 ± 2.14 mg/L
Betaine 150 mmol/L added in fermentation medium
  Content of ergothioneine in fermentation broth: 146.6 mg/L and 146.6 ± 2.64 mg/L
Betaine 200 mmol/L added in fermentation medium
  Content of ergothioneine in fermentation broth: 129.9 ± 3.34 mg/L
Betaine 250 mmol/L added in fermentation medium
  Content of ergothioneine in fermentation broth: 124.8 ± 1.38 mg/L

## O=C(O)CC(O)(CC(=O)O)C(=O)O [citric acid]
Pleurotus ostreatus, CGMCC6232, 360 h, citric acid 0.4 g/L, read-out: content of ergothioneine improved compared with control group
  activation at 400 µg/mL: 10.4%
Citric acid 0.01 g/L added in fermentation medium
  Content of ergothioneine in fermentation broth: 126.9 ± 2.75 mg/L
Citric acid 0.05 g/L added in fermentation medium
  Content of ergothioneine in fermentation broth: 130.2 ± 1.31 mg/L
Citric acid 0.2 g/L added in fermentation medium
  Content of ergothioneine in fermentation broth: 135.4 ± 0.83 mg/L
Citric acid 0.4 g/L added in fermentation medium
  Content of ergothioneine in fermentation broth: 138.3 mg/L and 138.3 ± 2.49 mg/L
Citric acid 0.8 g/L added in fermentation medium
  Content of ergothioneine in fermentation broth: 128.4 ± 1.16 mg/L

## N[C@@H](CS)C(=O)O [cysteine]
Pleurotus ostreatus, CGMCC6232, 360 h, cysteine 15 mmol/L added on the 6th day, read-out: content of ergothioneine improved compared with control group
  activation at 15000 µM: 56%
Pleurotus ostreatus, CGMCC6232, 360 h, cysteine 15 mmol/L, read-out: content of ergothioneine improved compared with control group
  activation at 15000 µM: 46%
Cysteine 2 mmol/L added in fermentation medium
  Content of ergothioneine in fermentation broth: 124.8 ± 2.03 mg/L
Cysteine 9 mmol/L added in fermentation medium
  Content of ergothioneine in fermentation broth: 140.4 ± 1.83 mg/L
Cysteine 15 mmol/L added in fermentation medium
  Content of ergothioneine in fermentation broth: 175.5 mg/L and 175.5 ± 1.36 mg/L
Cysteine 15 mmol/L, timing for adding 0 d (before the fermentation)
  Content of ergothioneine in fermentation broth: 170.3 ± 1.92 mg/L
Cysteine 15 mmol/L, timing for adding 2 d
  Content of ergothioneine in fermentation broth: 177.4 ± 2.33 mg/L
Cysteine 15 mmol/L, timing for adding 4 d
  Content of ergothioneine in fermentation broth: 186.1 ± 1.67 mg/L
Cysteine 15 mmol/L, timing for adding 6 d
  Content of ergothioneine in fermentation broth: 193.8 mg/L and 193.8 ± 4.16 mg/L
Cysteine 15 mmol/L, timing for adding 8 d
  Content of ergothioneine in fermentation broth: 172.1 ± 1.73 mg/L
Cysteine 15 mmol/L, timing for adding 10 d
  Content of ergothioneine in fermentation broth: 156.5 ± 2.52 mg/L
Cysteine 25 mmol/L added in fermentation medium
  Content of ergothioneine in fermentation broth: 164.6 ± 4.31 mg/L
Cysteine 35 mmol/L added in fermentation medium
  Content of ergothioneine in fermentation broth: 148.1 ± 2.74 mg/L
Cysteine 45 mmol/L added in fermentation medium
  Content of ergothioneine in fermentation broth: 126.1 ± 2.99 mg/L

## Nc1nc2ncc(CNc3ccc(C(=O)N[C@@H](CCC(=O)O)C(=O)O)cc3)nc2c(=O)[nH]1 [folic acid]
Pleurotus ostreatus, CGMCC6232, 360 h, folic acid 0.64 g/L, read-out: content of ergothioneine improved compared with control group
  activation at 640 µg/mL: 25%
Folic acid 0.08 g/L added in fermentation medium
  Content of ergothioneine in fermentation broth: 121.4 ± 1.36 mg/L
Folic acid 0.16 g/L added in fermentation medium
  Content of ergothioneine in fermentation broth: 127.1 ± 2.24 mg/L
Folic acid 0.32 g/L added in fermentation medium
  Content of ergothioneine in fermentation broth: 136.9 ± 4.14 mg/L
Folic acid 0.64 g/L added in fermentation medium
  Content of ergothioneine in fermentation broth: 148.6 mg/L and 148.6 ± 1.54 mg/L
Folic acid 1.28 g/L added in fermentation medium
  Content of ergothioneine in fermentation broth: 143.8 ± 1.77 mg/L
Folic acid 2.56 g/L added in fermentation medium
  Content of ergothioneine in fermentation broth: 122.2 ± 3.03 mg/L

## N[C@@H](CCC(=O)O)C(=O)O [glutamic acid]
Pleurotus ostreatus, CGMCC6232, 360 h, glutamic acid 10 μmol/L, read-out: content of ergothioneine improved compared with control group
  activation at 10 µM: 9.1%
Glutamic acid 1 μmol/L added in fermentation medium
  Content of ergothioneine in fermentation broth: 123.6 ± 0.92 mg/L
Glutamic acid 5 μmol/L added in fermentation medium
  Content of ergothioneine in fermentation broth: 128.8 ± 1.19 mg/L
Glutamic acid 10 μmol/L added in fermentation medium
  Content of ergothioneine in fermentation broth: 131.2 mg/L and 131.2 ± 2.62 mg/L
Glutamic acid 50 μmol/L added in fermentation medium
  Content of ergothioneine in fermentation broth: 124 ± 1.72 mg/L
Glutamic acid 100 μmol/L added in fermentation medium
  Content of ergothioneine in fermentation broth: 122.7 ± 1.63 mg/L

## OCC(O)CO [glycerol]
Pleurotus ostreatus, CGMCC6232, 360 h, glycerol 75 g/L vs 50 g/L, casein peptone 50 g/L, read-out: content of ergothioneine improved compared with control group
  activation at 75000 µg/mL: 8.5%
Glycerol 65 g/L, casein peptone 50 g/L in fermentation medium (control glycerol 50 g/L)
  Content of ergothioneine in fermentation broth: 162.4 ± 2.67 mg/L
Glycerol 75 g/L, casein peptone 50 g/L in fermentation medium (control glycerol 50 g/L)
  Content of ergothioneine in fermentation broth: 170.2 mg/L and 170.2 ± 3.49 mg/L
Glycerol 85 g/L, casein peptone 50 g/L in fermentation medium (control glycerol 50 g/L)
  Content of ergothioneine in fermentation broth: 164.8 ± 3.41 mg/L
Glycerol 95 g/L, casein peptone 50 g/L in fermentation medium (control glycerol 50 g/L)
  Content of ergothioneine in fermentation broth: 160.1 ± 1.15 mg/L

## N[C@@H](Cc1c[nH]cn1)C(=O)O [histidine]
Pleurotus ostreatus, CGMCC6232, 360 h, histidine 1 mmol/L, read-out: content of ergothioneine improved compared with control group
  activation at 1000 µM: 7.7%

## O=C(O)CCCc1c[nH]c2ccccc12 [indolebutyric acid]
Indolebutyric acid 0.1 mg/L added in fermentation medium
  Content of ergothioneine in fermentation broth: 130.9 ± 2.23 mg/L
Indolebutyric acid 0.5 mg/L added in fermentation medium
  Content of ergothioneine in fermentation broth: 138.4 ± 1.29 mg/L
Indolebutyric acid 1 mg/L
  content of ergothioneine improved compared with control group: 9.33%
Indolebutyric acid 1 mg/L added in fermentation medium
  Content of ergothioneine in fermentation broth: 140.6 mg/L and 140.6 ± 3.09 mg/L
Indolebutyric acid 2 mg/L added in fermentation medium
  Content of ergothioneine in fermentation broth: 137.7 ± 1.84 mg/L
Indolebutyric acid 4 mg/L added in fermentation medium
  Content of ergothioneine in fermentation broth: 132.8 ± 0.93 mg/L

## CC(C)C[C@H](N)C(=O)O [leucine]
Pleurotus ostreatus, CGMCC6232, 360 h, leucine 0.1 g/L, read-out: content of ergothioneine improved compared with control group
  activation at 100 µg/mL: 11.9%
Leucine 0.02 g/L added in fermentation medium
  Content of ergothioneine in fermentation broth: 127 ± 1.23 mg/L
Leucine 0.05 g/L added in fermentation medium
  Content of ergothioneine in fermentation broth: 129.4 ± 2.17 mg/L
Leucine 0.1 g/L added in fermentation medium
  Content of ergothioneine in fermentation broth: 133.3 mg/L and 133.3 ± 2.5 mg/L
Leucine 0.25 g/L added in fermentation medium
  Content of ergothioneine in fermentation broth: 130.8 ± 2.46 mg/L
Leucine 0.5 g/L added in fermentation medium
  Content of ergothioneine in fermentation broth: 125.5 ± 1.36 mg/L

## NCCCC[C@H](N)C(=O)O [lysine]
  Content of ergothioneine in fermentation broth: 124.8 ± 0.72 mg/L and 125.6 ± 2.03 mg/L and 128.9 ± 2.12 mg/L and 133.7 ± 1.51 mg/L and 135.1 ± 0.66 mg/L and 126.3 ± 2.67 mg/L
[1]
  activation at 5000 µg/mL: 13.4%

## CSCC[C@H](N)C(=O)O [methionine]
Pleurotus ostreatus, CGMCC6232, 360 h, methionine 15 mmol/L added on the 4th day, read-out: content of ergothioneine improved compared with control group
  activation at 15000 µM: 63.1%
Pleurotus ostreatus, CGMCC6232, 360 h, methionine 15 mmol/L, read-out: content of ergothioneine improved compared with control group
  activation at 15000 µM: 49.4%
Methionine 3 mmol/L added in fermentation medium
  Content of ergothioneine in fermentation broth: 127.3 ± 3.47 mg/L
Methionine 9 mmol/L added in fermentation medium
  Content of ergothioneine in fermentation broth: 154.8 ± 3.31 mg/L
Methionine 15 mmol/L added in fermentation medium
  Content of ergothioneine in fermentation broth: 179.6 mg/L and 179.6 ± 4.17 mg/L
Methionine 15 mmol/L, timing for adding 0 d (before the fermentation)
  Content of ergothioneine in fermentation broth: 179.3 ± 4.23 mg/L
Methionine 15 mmol/L, timing for adding 2 d
  Content of ergothioneine in fermentation broth: 190.5 ± 2.84 mg/L
Methionine 15 mmol/L, timing for adding 4 d
  Content of ergothioneine in fermentation broth: 202.6 mg/L and 202.6 ± 5.01 mg/L
Methionine 15 mmol/L, timing for adding 6 d
  Content of ergothioneine in fermentation broth: 174.9 ± 3.73 mg/L
Methionine 15 mmol/L, timing for adding 8 d
  Content of ergothioneine in fermentation broth: 160.3 ± 5.29 mg/L
Methionine 15 mmol/L, timing for adding 10 d
  Content of ergothioneine in fermentation broth: 149.3 ± 3.27 mg/L
Methionine 25 mmol/L added in fermentation medium
  Content of ergothioneine in fermentation broth: 168.5 ± 4.53 mg/L
Methionine 35 mmol/L added in fermentation medium
  Content of ergothioneine in fermentation broth: 153.7 ± 3.2 mg/L
Methionine 45 mmol/L added in fermentation medium
  Content of ergothioneine in fermentation broth: 126.9 ± 2.81 mg/L
